In ChEMBL document CHEMBL1201862, “PubChem BioAssay data set” (2004):
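All cell lines were grown in 96-well plates and treated with compound for 48 hours. GI50: concentration for 50% inhibition of growth.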 Active and inactive are the calls of the source. Rule as the data show it: active = GI50 up to about 1.1 µM and inactive = higher.

What was measured:
Experiment in all cases: DTP human tumour cell line panel, 48 h
Hs-578T = tested on: Hs-578T
OVCAR-3 = tested on: OVCAR-3
CCRF-CEM = tested on: CCRF-CEM
ACHN = tested on: ACHN
SK-MEL-5 = tested on: SK-MEL-5
U-251 = tested on: U-251
SK-OV-3 = tested on: SK-OV-3
SW-620 = tested on: SW-620
MDA-MB-435 = tested on: MDA-MB-435
MDA-MB-231 = tested on: MDA-MB-231
HCT-15 = tested on: HCT-15
COLO 205 = tested on: COLO 205
DU-145 = tested on: DU-145
LOX IMVI = tested on: LOX IMVI
IGROV-1 = tested on: IGROV-1
M14 = tested on: M14
CAKI-1 = tested on: CAKI-1
SK-MEL-2 = tested on: SK-MEL-2
PC-3 = tested on: PC-3
SF-268 = tested on: SF-268
HOP-62 = tested on: HOP-62
SK-MEL-28 = tested on: SK-MEL-28
MDA-N = tested on: MDA-N
EKVX = tested on: EKVX
SR = tested on: SR
OVCAR-8 = tested on: OVCAR-8
Malme-3M = tested on: Malme-3M
UO-31 = tested on: UO-31
SF-295 = tested on: SF-295
NCI-H522 = tested on: NCI-H522
HL-60 = tested on: HL-60
786-0 = tested on: 786-0
OVCAR-5 = tested on: OVCAR-5
NCI/ADR-RES = tested on: NCI/ADR-RES
OVCAR-4 = tested on: OVCAR-4
RPMI-8226 = tested on: RPMI-8226
SNB-19 = tested on: SNB-19
MCF7 = tested on: MCF7
UACC-257 = tested on: UACC-257
SN12C = tested on: SN12C
K562 = tested on: K562
NCI-H460 = tested on: NCI-H460
UACC-62 = tested on: UACC-62
HT-29 = tested on: HT-29
NCI-H226 = tested on: NCI-H226
SNB-75 = tested on: SNB-75
A549 = tested on: A549
NCI-H23 = tested on: NCI-H23
TK-10 = tested on: TK-10
KM12 = tested on: KM12
HCT-116 = tested on: HCT-116
BT-549 = tested on: BT-549
T47D = tested on: T47D
RXF 393 = tested on: RXF 393
HOP-92 = tested on: HOP-92
MOLT-4 = tested on: MOLT-4
HCC 2998 = tested on: HCC 2998
SF-539 = tested on: SF-539

Measured: GI50

CCOc1cc(C(=O)O)c2c(ccc3ccc(OC)c(OC)c32)c1OC
inactive: Hs-578T > 100 µM | OVCAR-3 > 100 µM | CCRF-CEM > 100 µM | ACHN > 100 µM | SK-MEL-5 > 100 µM | U-251 > 100 µM | SK-OV-3 > 100 µM | SW-620 > 100 µM | MDA-MB-435 > 100 µM | MDA-MB-231 > 100 µM | COLO 205 > 100 µM | DU-145 > 100 µM | LOX IMVI > 100 µM | IGROV-1 > 100 µM | M14 > 100 µM | CAKI-1 > 100 µM | SK-MEL-2 > 100 µM | PC-3 > 100 µM | SF-268 > 100 µM | HOP-62 > 100 µM | SK-MEL-28 > 100 µM | MDA-N > 100 µM | EKVX > 100 µM | SR > 100 µM | OVCAR-8 > 100 µM | Malme-3M > 100 µM | UO-31 > 100 µM | SF-295 > 100 µM | NCI-H522 > 100 µM | HL-60 > 100 µM | 786-0 > 100 µM | OVCAR-5 > 100 µM | NCI/ADR-RES > 100 µM | OVCAR-4 > 100 µM | RPMI-8226 > 100 µM | SNB-19 > 100 µM | MCF7 > 100 µM | UACC-257 > 100 µM | SN12C > 100 µM | K562 > 100 µM | NCI-H460 > 100 µM | UACC-62 > 100 µM | HT-29 > 100 µM | NCI-H226 > 100 µM | SNB-75 > 100 µM | A549 > 100 µM | NCI-H23 > 100 µM | TK-10 > 100 µM | KM12 > 100 µM | HCT-116 > 100 µM | BT-549 > 100 µM | T47D > 100 µM | RXF 393 > 100 µM | HOP-92 > 100 µM | MOLT-4 > 100 µM | HCC 2998 > 100 µM
> 100 µM: HCT-15

O=C1C(O)=C(CCCCCCCCC2CCCCC2)C(=O)c2ccccc21 [MENOCTONE]
4.69 µM: HCT-15
active: HL-60 1 µM
inactive: Hs-578T 12.4 µM | OVCAR-3 10.7 µM | CCRF-CEM 2.72 µM | ACHN 2.93 µM | SK-MEL-5 10.4 µM | U-251 5.71 µM | SK-OV-3 16.1 µM | SW-620 4.23 µM | MDA-MB-435 4.99 µM | MDA-MB-231 4.56 µM | COLO 205 8.45 µM | DU-145 7.45 µM | LOX IMVI 3.6 µM | IGROV-1 5.3 µM | M14 10.8 µM | CAKI-1 5.5 µM | SK-MEL-2 11.8 µM | PC-3 5.09 µM | SF-268 7.03 µM | HOP-62 11.6 µM | SK-MEL-28 11.4 µM | MDA-N 4.75 µM | EKVX 4.55 µM | SR 6.4 µM | OVCAR-8 8.67 µM | Malme-3M 1.3 µM | UO-31 8.34 µM | SF-295 6.98 µM | NCI-H522 6.24 µM | 786-0 6.01 µM | OVCAR-5 17 µM | NCI/ADR-RES 6.34 µM | SF-539 7.53 µM | OVCAR-4 16.5 µM | RPMI-8226 6.15 µM | SNB-19 9.86 µM | MCF7 6.41 µM | UACC-257 6.28 µM | SN12C 7.89 µM | K562 2.51 µM | NCI-H460 4.3 µM | UACC-62 6.05 µM | HT-29 12 µM | SNB-75 10.6 µM | A549 5.58 µM | NCI-H23 3.33 µM | TK-10 14.7 µM | KM12 8.49 µM | HCT-116 3.33 µM | BT-549 11.7 µM | T47D 5.5 µM | HOP-92 10 µM | MOLT-4 2.58 µM | HCC 2998 8.69 µM
